Here are results for 2 compounds from US9821173B2, “Anti-cancer agents and methods of use” (Case Western Reserve University, priority 2013, dated 2017).

One data set concerns the target T1, ITK (Homo sapiens, UniProt Q08881).
T1 construct: purchased Luceome Biotechnologies (Tucson, Ariz.)
Briefly: Kinase inhibition screening (Luceome). The data set is classed as biochemical. The note with it: 10 μM.

The target of the next data set is BSA (Bos taurus, UniProt P02769). Briefly: Reactivity of Au(I)-compounds with BSA thiol (DTNB -SH titer). The note with it: 120 μM compound, Au(I)/BSA ratios up to 4:1, one hour, 37° C., PBS. Also on record: species or system bovine. How it is done: PBS was used as the reaction buffer.
We tested the ability of various Au(I)-complexes to non-selectively react with BSA. […] P2 resin was effective in retaining Au(I)-containing compounds including compound 3 and compound 4. However, BSA was not retained in the resin as >95% of the BSA loaded into the Penefsky column is recovered in the eluant. […] Values obtained from reactions containing BSA incubated with the various Au(I) complexes were compared to identical reactions containing BSA alone and eluted through Penefsky columns.

Data set [1] is described as follows: Reactivity toward L-cysteine (DTNB). The note with it: 400 μM L-cysteine with equivalent concentration of compound.

“Also recorded” adds a separate entry of the source.

T1 sequence (Q08881 whole entry): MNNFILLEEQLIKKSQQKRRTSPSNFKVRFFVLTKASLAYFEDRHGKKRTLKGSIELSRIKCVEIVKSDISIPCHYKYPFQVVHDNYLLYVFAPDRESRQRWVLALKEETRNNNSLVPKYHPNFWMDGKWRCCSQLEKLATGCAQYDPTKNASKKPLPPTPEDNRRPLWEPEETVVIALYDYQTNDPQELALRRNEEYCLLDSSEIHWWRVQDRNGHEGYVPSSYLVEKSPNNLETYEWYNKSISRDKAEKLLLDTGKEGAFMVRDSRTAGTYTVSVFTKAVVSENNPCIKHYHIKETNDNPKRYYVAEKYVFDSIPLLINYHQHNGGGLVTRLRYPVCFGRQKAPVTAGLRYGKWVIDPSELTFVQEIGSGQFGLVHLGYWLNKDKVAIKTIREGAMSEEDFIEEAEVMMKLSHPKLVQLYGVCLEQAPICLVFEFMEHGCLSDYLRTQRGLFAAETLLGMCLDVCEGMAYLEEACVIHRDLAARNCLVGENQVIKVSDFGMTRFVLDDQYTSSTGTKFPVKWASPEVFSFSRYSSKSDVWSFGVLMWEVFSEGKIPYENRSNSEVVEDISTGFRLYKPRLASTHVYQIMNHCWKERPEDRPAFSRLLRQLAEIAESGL
Chain of BSA (P02769 25-607): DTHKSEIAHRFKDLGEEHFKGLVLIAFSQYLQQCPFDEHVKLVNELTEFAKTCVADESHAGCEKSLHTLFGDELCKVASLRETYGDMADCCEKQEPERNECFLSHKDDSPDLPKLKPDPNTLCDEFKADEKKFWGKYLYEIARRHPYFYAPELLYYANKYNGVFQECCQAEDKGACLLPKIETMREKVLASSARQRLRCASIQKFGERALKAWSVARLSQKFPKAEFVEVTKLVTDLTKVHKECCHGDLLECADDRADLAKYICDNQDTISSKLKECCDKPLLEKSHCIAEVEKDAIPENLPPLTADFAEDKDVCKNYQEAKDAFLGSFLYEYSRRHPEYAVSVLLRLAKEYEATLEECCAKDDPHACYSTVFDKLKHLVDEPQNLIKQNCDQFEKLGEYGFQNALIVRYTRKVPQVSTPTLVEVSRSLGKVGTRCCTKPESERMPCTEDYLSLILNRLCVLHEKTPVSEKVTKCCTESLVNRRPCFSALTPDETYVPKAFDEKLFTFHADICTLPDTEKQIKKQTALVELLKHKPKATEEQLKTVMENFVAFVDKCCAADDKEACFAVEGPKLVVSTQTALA

On to `CC(C)(C)OC(=O)n1ccc2c[c]([Au-][P+](C3CCCCC3)(C3CCCCC3)C3CCCCC3)ccc21` [Compound 4, 5-{Tricyclohexylphosphine aurate(I)}-tert-butyl1H-indole-1-carboxylate], for which the “% Inhibition ITK” value on ITK is listed as 3.1%.
Regarding `CC(C)(C)OC(=O)n1ccc2c[c]([Au-][P+](c3ccccc3)(c3ccccc3)c3ccccc3)ccc21` [Compound 3, 5-{Triphenylphosphine aurate(I)}-tert-butyl1H-indole-1-carboxylate], the “reactivity with BSA (relative thiol content, -SH titer)” value at BSA is on record as “relative thiol content of BSA remains unchanged”. Moreover, the “change in free -SH on L-cysteine” value in data set [1] is “does not change the titer of free —SH; also recorded: does not cause a change in the amount of free —SH”.
